The experiment addresses T1, BTK (Homo sapiens, UniProt Q06187).
T1 construct: The GM01501.3 cell line endogenously expresses BTK with a HiBiT fusion tag via CRISPR knock-in at its C-terminal region; endogenous in cells; host or cells: GM01501.3 (GM01501 cells engineered by CRISPR knock-in of HiBiT at the BTK locus)
As to the kind of experiment: BTK degradation assay using the HiBiT Method (Nano-Glo HiBiT Lytic Assay, GM01501.3 cells). The class given is cell-based. Particulars: HiBiT Degradation on GM01501.3 BTK @ 6 hours. The procedure: Selected compounds were tested in a BTK degradation assay using the HiBiT Method. Park Memorial Institute (RPM1) 1640 Medium with phenol red, L-Glutamine, Sodium Pyruvate, and fetal bovine serum (FBS) were purchased from Gibco (Grand Island, NY, USA). Nano-Glo® HiBiT Lytic Assay System was purchased from Promega (Madison, WI, USA). GM01501 cells were obtained from the NIGMS Human Genetic Cell Repository at the Coriell Institute for Medical Research. The GM01501.3 cell line endogenously expresses BTK with a HiBiT fusion tag via CRISPR knock-in at its C-terminal region. It was engineered by electroporation with the Neon Transfection System (Themo Fisher Scientific), according to manufacturer indications. Electroporation conditions: 1 pulse of 1,350 V for 30 ms for 0.5×10_6 cells. Cell culture flasks and 384-well microplates were acquired from VWR (Radnor, PA, USA). BTK degradation was evaluated by quantification of luminescent signal using Nano-Glo® HiBiT Lytic Assay kit. Test compounds were added to the 384-well plate from a top concentration of 10 μM with 11 points, half log titration in duplicates. GM01501.3 cells were added into 384-well plates at a cell density of 10,000 cells per well in a total volume of 30 μl. The plates were kept at 37° C. with 5% CO2 for 6 hours. Negative control wells included cells treated with DMSO only and positive control wells included only growing media, without Nano-Glo® HiBiT Lytic reagent. After a 6-hour incubation, Nano-Glo® HiBiT Lytic Assay reagent was added to the cells following manufacturer indications. Luminescence was acquired on EnVision™ Multilabel Reader (PerkinElmer, Santa Clara, CA, USA). […] “++++” represents a DC50 value of less than 100 nM. “+++” represents a DC50 value of 100 nM-500 nM. “++” represents a DC50 value of 500 nM-1000 nM. “+” represents a DC50 value of greater than 1000 nM.
(In general: HiBiT is a short tag that completes a luciferase, so light tracks the accessible tagged protein.)

Usually DC50 stands for the midpoint of the concentration-degradation curve.

T1 sequence (Q06187 whole entry, the tested form may be a part): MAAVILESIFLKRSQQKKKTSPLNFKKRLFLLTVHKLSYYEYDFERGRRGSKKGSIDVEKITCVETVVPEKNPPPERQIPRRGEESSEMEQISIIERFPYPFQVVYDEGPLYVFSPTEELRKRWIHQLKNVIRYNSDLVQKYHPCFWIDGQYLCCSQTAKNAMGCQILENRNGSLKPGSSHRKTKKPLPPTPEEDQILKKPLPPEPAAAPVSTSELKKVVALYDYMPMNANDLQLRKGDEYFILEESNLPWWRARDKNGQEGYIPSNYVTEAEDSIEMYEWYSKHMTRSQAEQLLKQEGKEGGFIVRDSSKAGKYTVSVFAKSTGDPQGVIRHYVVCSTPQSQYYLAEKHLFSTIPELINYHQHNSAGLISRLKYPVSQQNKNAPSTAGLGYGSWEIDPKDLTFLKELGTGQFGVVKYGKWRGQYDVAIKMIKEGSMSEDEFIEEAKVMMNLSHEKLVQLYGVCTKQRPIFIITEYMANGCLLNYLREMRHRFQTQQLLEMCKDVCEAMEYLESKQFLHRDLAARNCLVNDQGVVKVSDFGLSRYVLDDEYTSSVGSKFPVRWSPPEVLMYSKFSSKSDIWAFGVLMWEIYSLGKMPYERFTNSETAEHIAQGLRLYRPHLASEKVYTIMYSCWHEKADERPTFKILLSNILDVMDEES

Compound `Cc1cc(-c2ncnn3cc(N4CCN(C(=O)C5(CNC(=O)c6ccc(OC7CCC(=O)NC7=O)cc6)CC5)CC4)cc23)ccc1CNC(=O)c1noc(C(C)(C)C)n1` (stereo not shown) [Example 174, 5-(tert-butyl)-N-(4-(6-(4-(1-((4-((2,6-dioxopiperidin-3-yl)oxy)benzamido)methyl)cyclopropane-1-carbonyl)piperazin-1-yl)pyrrolo[2,1-f][1,2,4]triazin-4-yl)-2-methylbenzyl)-1,2,4-oxadiazole-3-carboxamide] displayed a DC50 below 100 nM.
With `Cc1cc(-c2ncnn3cc(-c4ccc(CN5CCCC(c6ccc(NC7CCC(=O)NC7=O)cc6)C5)cc4)cc23)ccc1CNC(=O)c1noc(C(C)(C)C)n1` (stereo not shown) [Example 7, 5-tert-butyl-N-[[4-[6-[4-[[3-[4-[(2,6-dioxo-3-piperidyl)amino]phenyl]-1-piperidyl]methyl]phenyl]pyrrolo[2,1-f][1,2,4]triazin-4-yl]-2-methyl-phenyl]methyl]-1,2,4-oxadiazole-3-carboxamide] the figure was below 100 nM; with `CN(Cc1ccc(-c2ncnn3cc(-c4ccc(CN5CCC(c6ccc7c(N8CCC(=O)NC8=O)nn(C)c7c6)CC5)cc4)cc23)cc1F)C(=O)c1noc(C(C)(C)C)n1` [Example 37, 5-tert-butyl-N-[[4-[6-[4-[[4-[3-(2,4-dioxohexahydropyrimidin-1-yl)-1-methyl-indazol-6-yl]-1-piperidyl]methyl]phenyl]pyrrolo[2,1-f][1,2,4]triazin-4-yl]-2-fluoro-phenyl]methyl]-N-methyl-1,2,4-oxadiazole-3-carboxamide], 100 to 500 nM.
With `Cc1cc(-c2ncnn3cc(CCC[C@H](F)CN4CCC(c5ccc(C6CCC(=O)NC6=O)cc5)CC4)cc23)ccc1CNC(=O)c1noc(C(C)(C)C)n1` (stereo partly drawn) [Example 171, 5-tert-butyl-N-[[4-[6-[(4S)-5-[4-[4-(2,6-dioxo-3-piperidyl)phenyl]-1-piperidyl]-4-fluoro-pentyl]pyrrolo[2,1-f][1,2,4]triazin-4-yl]-2-methyl-phenyl]methyl]-1,2,4-oxadiazole-3-carboxamide] the figure was below 100 nM.
With `Cc1cc(-c2ncnn3cc(-c4ccc(CN5CCC(c6ccc(NC7CCC(=O)NC7=O)cc6)CC5)cc4C)cc23)ccc1CNC(=O)c1noc(C(C)(C)C)n1` (stereo not shown) [Example 17, 5-tert-butyl-N-[[4-[6-[4-[[4-[4-[(2,6-dioxo-3-piperidyl)amino]phenyl]-1-piperidyl]methyl]-2-methyl-phenyl]pyrrolo[2,1-f][1,2,4]triazin-4-yl]-2-methyl-phenyl]methyl]-1,2,4-oxadiazole-3-carboxamide] the figure was below 100 nM; with `Cc1cc(-c2ncnn3cc(-c4ccc(CN5CCC(c6ccc(NC7CCC(=O)NC7=O)cc6)CC5)cc4)cc23)ccc1CNC(=O)c1cnc(C(C)(C)C)cn1` (stereo not shown) [Example 82, 5-tert-butyl-N-[[4-[6-[4-[[4-[4-[(2,6-dioxo-3-piperidyl)amino]phenyl]-1-piperidyl]methyl]phenyl]pyrrolo[2,1-f][1,2,4]triazin-4-yl]-2-methyl-phenyl]methyl]pyrazine-2-carboxamide], below 100 nM.
In turn, `CC(C)(C)c1nc(C(=O)NCc2ccc(-c3ncnn4cc(CCCCN5CCC(n6ccc(NC7CCC(=O)NC7=O)n6)CC5)cc34)cc2F)no1` (stereo not shown) [Example 137, 5-tert-butyl-N-[[4-[6-[4-[4-[3-[(2,6-dioxo-3-piperidyl)amino]pyrazol-1-yl]-1-piperidyl]butyl]pyrrolo[2,1-f][1,2,4]triazin-4-yl]-2-fluoro-phenyl]methyl]-1,2,4-oxadiazole-3-carboxamide] showed a DC50 below 100 nM.
With `CC(C)(C)c1nc(C(=O)NCc2ccc(-c3ncnn4cc(CCCCN5CCC(c6ccc(C7(C)CCC(=O)NC7=O)cc6)CC5)cc34)cc2F)no1` (stereo not shown) [Example 140, 5-tert-butyl-N-[[2-fluoro-4-[6-[4-[4-[4-(3-methyl-2,6-dioxo-3-piperidyl)phenyl]-1-piperidyl]butyl]pyrrolo[2,1-f][1,2,4]triazin-4-yl]phenyl]methyl]-1,2,4-oxadiazole-3-carboxamide] the figure was below 100 nM; with `CO[C@H]1CN(CCc2cc3c(-c4ccc(CNC(=O)c5noc(C(C)(C)C)n5)c(C)c4)ncnn3c2)CC[C@H]1c1ccc2c(N3CCC(=O)NC3=O)nn(C)c2c1` (single isomer, unassigned) [Example 262], below 100 nM.
With `Cc1cc(-c2ncnn3cc(-c4ccc(OCCCCCCN5CCC(c6ccc(NC7CCC(=O)NC7=O)cc6)CC5)cc4)cc23)ccc1CNC(=O)c1noc(C(C)(C)C)n1` (stereo not shown) [Example 114, 5-tert-butyl-N-[[4-[6-[4-[6-[4-[4-[(2,6-dioxo-3-piperidyl)amino]phenyl]-1-piperidyl]hexoxy]phenyl]pyrrolo[2,1-f][1,2,4]triazin-4-yl]-2-methyl-phenyl]methyl]-1,2,4-oxadiazole-3-carboxamide] the figure was below 100 nM.
The figure for `Cc1cc(-c2ncnn3cc(-c4ccc(C(=O)NCCc5cccc(NC6CCC(=O)NC6=O)c5)cc4)cc23)ccc1CNC(=O)c1noc(C(C)(C)C)n1` (stereo not shown) [Example 196] is below 100 nM; for `Cc1cc(-c2ncnn3cc(-c4ccc(CN5CCC(c6ccc(NC7CCC(=O)NC7=O)cc6)CC5)cc4)cc23)ccc1CNC(=O)c1nc(C(C)(C)C)co1` (stereo not shown) [Example 80, 4-tert-butyl-N-[[4-[6-[4-[[4-[4-[(2,6-dioxo-3-piperidyl)amino]phenyl]-1-piperidyl]methyl]phenyl]pyrrolo[2,1-f][1,2,4]triazin-4-yl]-2-methyl-phenyl]methyl]oxazole-2-carboxamide] it is below 100 nM.
Turning to `Cc1cc(-c2ncnn3cc(-c4ccc(CCN5CCC(c6ccc(C7CCC(=O)NC7=O)cc6)C(F)(F)C5)cc4)cc23)ccc1CNC(=O)c1noc(C(C)(C)C)n1` (stereo not shown) [Example 51, 5-tert-butyl-N-[[4-[6-[4-[2-[4-[4-(2,6-dioxo-3-piperidyl)phenyl]-3,3-difluoro-1-piperidyl]ethyl]phenyl]pyrrolo[2,1-f][1,2,4]triazin-4-yl]-2-methyl-phenyl]methyl]-1,2,4-oxadiazole-3-carboxamide], the DC50 is below 100 nM.
With `Cc1cc(-c2ncnn3cc(-c4ccc(CN5CCC(c6ccc(NC7CCC(=O)NC7=O)cc6)CC5)cc4)cc23)ccc1CNC(=O)c1ccc(F)c(F)c1` (stereo not shown) [Example 65, N-[[4-[6-[4-[[4-[4-[(2,6-dioxo-3-piperidyl)amino]phenyl]-1-piperidyl]methyl]phenyl]pyrrolo[2,1-f][1,2,4]triazin-4-yl]-2-methyl-phenyl]methyl]-3,4-difluoro-benzamide] the figure was below 100 nM; with `Cc1cc(-c2ncnn3cc(-c4cc(CN5CCC(c6ccc(C7CCC(=O)NC7=O)cc6)CC5)ccn4)cc23)ccc1CNC(=O)c1noc(C(C)(C)C)n1` (stereo not shown) [Example 216, 5-(tert-butyl)-N-(4-(6-(4-((4-(4-(2,6-dioxopiperidin-3-yl)phenyl)piperidin-1-yl)methyl)pyridin-2-yl)pyrrolo[2,1-f][1,2,4]triazin-4-yl)-2-methylbenzyl)-1,2,4-oxadiazole-3-carboxamide], below 100 nM.
Take `Cc1cc(-c2ncnn3cc(-c4ccc(CN5C6CCC5CC(c5ccc(NC7CCC(=O)NC7=O)cc5)C6)cc4)cc23)ccc1CNC(=O)c1noc(C(C)(C)C)n1` (stereo not shown) [Example 6, 5-tert-butyl-N-[[4-[6-[4-[[3-[4-[(2,6-dioxo-3-piperidyl)amino]phenyl]-8-azabicyclo[3.2.1]octan-8-yl]methyl]phenyl]pyrrolo[2,1-f][1,2,4]triazin-4-yl]-2-methyl-phenyl]methyl]-1,2,4-oxadiazole-3-carboxamide]: the DC50 was below 100 nM.
